System: Epstein-Barr virus (EBV)
Assay: EBV reactivation (viral BZLF1 gene expression) inhibition
Assay type: cell-based
Details: 3 mM; compared to low expression in unactivated cells
Procedure: FIG. 20B illustrates EBV reactivation in the presence of the curcuminoids shown in FIG. 28A, measured by increased viral BZLF1 gene expression, is induced with a known reactivating drug, sodium butyrate (3 mM) compared to low expression in unactivated cells, in accordance with various embodiments. EBV reactivation was inhibited by five novel curcuminoids (10 μM).

CCCC(=O)[O-].[Na+] [sodium butyrate]
EBV reactivation, measured by increased viral BZLF1 gene expression: induced
